The conditions of data set [1]: 25% (v/v) human serum in 0.1 M TRIS buffer pH 7.4, peptide 200 μM, 37 °C, 0/24/48/72 h, LC-MS UV trace vs 4-hydroxybenzoic acid internal standard, n = 3. On the procedure:
Human serum was diluted in 0.1 M filtered TRIS buffer pH 7.4 (50%, 1:1, v/v). Selected peptides were diluted in 0.1 M filtered TRIS buffer pH 7.4 to a concentration of 400 μM and 0.1 mg/mL 4- hydroxybenzoic acid was added as internal standard. Aliquots of peptide solution (300 μL) were added to aliquots of serum (300 μL) in sterile 1.5 mL Eppendorf tubes, to reach a peptide concentration of 200 μM and 25% (v/v) human serum during the assay. Samples, in triplicate, were incubated at 37 °C under gentle stirri ng (200 rpm). At different time points (0, 24, 48 and 72 hours), 100 μL of each sample was collected and quenched by precipitating serum proteins through the addition of (0.1 M) ZnSO4·7 H2O / ACN (1:1) (0.1 M, 100 μL) and cooling in ice bath for 10 minutes. Protein precipitates were pelleted under centrifugation (5 min at 14’000 rpm) and the supernatants were analysed by LC-MS. Peaks corresponding to the internal standard and the undegraded peptides were integrated from the area under the curves (AUC) of UV traces, with the ratio peptide/standard at t = 0 h as 100%.
Figure S7. Serum stability assay of the respective compound (200 μM), incubated with human serum (25% in TRIS buffer, 0.1 M, pH 7.4) at 37 °C. Aliquots were taken at different time (0 / 24 / 48 and 72 h). Undegraded peptide values determined by RP -HPLC analysis usi ng hydroxybenzoic acid as internal standard. Measured in triplicates and the data represent mean ± SD, n […]
(1 picture or pasted object on this page, not shown here)

Data set [2] deals with P. aeruginosa PA14 4.13 (phoQ). Nature of the data set: microbe, parasite or virus in culture. As to conditions: Pseudomonas aeruginosa.

In brackets after ≈: the same amount, converted by molar mass. Read-outs that look alike come from different tables or passages of the source. Non-standard residues stand in square brackets, D forms with d. Residues, ends and D or L forms follow the SMILES beside them. No end group written: not given here.

As for “VDKPPYLPRPRPPRRIYNR-NH2 [L-Onc, reference compound]”, the “Serum stability (undegraded peptide)” value in data set [1] is given as “rapidly degraded”.
On the same count and under the same terms, to `CC[C@H](C)[C@H](NC(=O)[C@@H](CCCNC(=N)N)NC(=O)[C@H](CCCNC(=N)N)NC(=O)[C@@H]1CCCN1C(=O)[C@@H]1CCCN1C(=O)[C@H](CCCNC(=N)N)NC(=O)[C@@H]1CCCN1C(=O)[C@H](CCCNC(=N)N)NC(=O)[C@@H]1CCCN1C(=O)[C@H](CC(C)C)NC(=O)[C@H](Cc1ccc(O)cc1)NC(=O)[C@@H]1CCCN1C(=O)[C@@H]1CCCN1C(=O)[C@H](CCCCN)NC(=O)[C@H](CC(=O)O)NC(=O)[C@@H](N)C(C)C)C(=O)N[C@@H](Cc1ccc(O)cc1)C(=O)N[C@@H](CC(N)=O)C(=O)N[C@H](CCCNC(=N)N)C(N)=O` [Onc112, reference compound] (H-VDKPPYLPRPRPPR[dR]IYN[dR]-NH2) belongs “essentially stable to degradation over 24 h”.
For `CC[C@H]1OC(=O)[C@H](C)[C@@H](O[C@H]2C[C@@](C)(OC)[C@@H](O)[C@H](C)O2)[C@H](C)[C@@H](O[C@@H]2O[C@H](C)C[C@H](N(C)C)[C@H]2O)[C@](C)(O)C[C@@H](C)CN(C)[C@H](C)[C@@H](O)[C@]1(C)O` [AZM, azithromycin, reference compound], the MIC in data set [2] (PA14, pH 7.4, read-out: MIC P. aeruginosa PA14 4.13 (phoQ), 12.5% MHB, polymyxin B resistant strain, 12.5% MHB pH 7.4, 16–20 h at 37 °C) lay within 16 to 32 µg/mL (≈ 21.4 to 42.7 µM); in data set [2] (PA14, pH 7.4, read-out: MIC P. aeruginosa PA14 4.13, supplement CSV, 12.5% MH pH 7.4), 16 to 32 µg/mL (≈ 21.4 to 42.7 µM).
